Test system: NRF2, GCLC, ER stress markers
Assay: Western blot of NRF2, GCLC and ER stress markers
Format: cell-based
Details: MEFs, MDA-MB231, MCF-7; 8-12 h
Method: Western blot. Protein lysates were prepared using RIPA buffer containing 5% sodium deoxycholate, 0.1% SDS, 0.1% Igepal in PBS with a cocktail of protease and phosphatase inhibitors (1 mM PMSF, 1 mM sodium orthovanadate, 1 mM NaF, and 30 μL/mL aprotinin (Sigma-Aldrich, USA)) and clarified by centrifugation. Protein concentration was determined using Bradford Protein Assay Reagent (Biorad, Hercules, Calif.). Equal amounts of protein were resolved using 8-12% SDS polyacrylamide gel, transferred onto nitrocellulose membranes (Hybond-ECL, GE Healthcare Lifesciences, Piscataway, N.J.) and detected using Lumiglo system (Cell Signaling Technology, Calif.) and x-ray films. Primary antibodies included COX-2 (#4842), NRF2 (D1C9), p-JNK1/2 (Thr183/Tyr185, #4671), p-p38 (Thr180/Tyr182, #9216), p-ERK1/2 (Thr202/Tyr204, #9101), BiP/GRP78 (C50B12), IRE1a (14C10), CHOP (L63F7) and PERK (D11A8) from Cell Signaling Technology; p-IRE1a (Ser724; NB100-2323) from Novus Biologicals; GCLC (Ab41463), beta-actin (ab8227) and ATF6 (Ab37149) from Abcam; p-PERK (Thr 981, sc-32577) and ATF3 (C19) were purchased from Santa Cruz. All primary antibodies were used at 1:1000 dilutions and secondary antibodies were 1:3000 in TBS-T with 5% BSA.

With `COS(C)(=O)=O` [MMS, methyl-methanesulfonate] the “NRF2 and GCLC protein levels” value was “rapidly increased in total and nuclear fractions”.

Reference: patent US10231958B2, “Methods and compositions for enhancing chemotherapy” (THE BOARD OF REGENTS OF THE UNIVERSITY OF TEXAS SYSTEM, priority 2015, dated 2019)
